What follows are compounds tested against T1, RORγ (Homo sapiens, UniProt P51449) (assay: Luciferase transfection assay: repression of RORγ transcriptional activity (MMP3 promoter reporter, dual luciferase)). Conditions: 10 μM added to growth medium of transfected 3T3L1 cells; firefly/renilla luciferase ratio 48 h after transfection; average, n at least 6.
T1 construct: the cells were transfected with an expression vector for full-length RORγ; expressed in transfected cells; host or cells: 3T3L1 (mouse pre-adipocyte) cells, pcDNA3 expression vector, CMV promoter
T1 sequence (P51449 1-518): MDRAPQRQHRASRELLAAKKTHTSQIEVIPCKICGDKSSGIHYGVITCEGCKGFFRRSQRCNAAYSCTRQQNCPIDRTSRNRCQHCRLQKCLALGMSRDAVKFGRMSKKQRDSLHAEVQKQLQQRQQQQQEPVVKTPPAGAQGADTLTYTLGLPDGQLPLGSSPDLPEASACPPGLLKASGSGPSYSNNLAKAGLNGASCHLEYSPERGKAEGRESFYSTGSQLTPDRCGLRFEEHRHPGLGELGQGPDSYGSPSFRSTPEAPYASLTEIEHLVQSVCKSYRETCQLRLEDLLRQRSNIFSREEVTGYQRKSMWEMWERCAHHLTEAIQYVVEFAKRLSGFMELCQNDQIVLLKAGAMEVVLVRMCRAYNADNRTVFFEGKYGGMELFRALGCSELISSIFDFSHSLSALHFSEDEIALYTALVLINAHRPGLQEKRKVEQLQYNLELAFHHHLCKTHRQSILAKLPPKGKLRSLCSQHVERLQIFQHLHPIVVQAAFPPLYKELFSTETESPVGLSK
Assay type: cell-based
Description: Adipocyte-like 3T3L1 cells grown to 60-70% confluence in 24 well dishes were used for the assay. The cells were transfected with the reporter gene (pMMP3-pGL3) or the respective empty pGL3 vector as control at a concentration of 0.1 μg/well. The pMMP3-pGL3 reporter expresses the luciferase gene under the control of the promoter of the RORγ target gene matrix metalloproteinase 3 (MMP3). In addition the cells were transfected with an expression vector for full-length RORγ or the respective empty pcDNA3 control vector at 0.1 ug/well. The pCMV-Renilla plasmid served as internal control to normalize for transfection efficacy at a concentration of 0.05 μg/well. All plasmids were transfected at the same time into the cell using the transfection reagent Fugene according to the manufacture's protocol (Promega). […] Firefly as well as renilla luciferase activity was measured 48 h after transfection using the Dual Luciferase Detection System (Promega) following the instructions provided by the manufacturer.
Compounds 13a, 13b and 14a were tested for their ability to inhibit gene transcription induced by the orphan nuclear receptor RORγ using a dual luciferase assay. […] This system allows to determine if a substance of interest is actively repressing the transcriptional activity of RORγ by using reduced luciferase activity as a read-out (FIG. 2).
For the actual experiment 60-70% confluent 3T3L1 pre-adipocytes were transfected with the MMP3 reporter, RORγ and the normalization vector expressing renilla luciferase. […] 48 h after introducing the plasmids, the cells were harvested, lysed and the activity of firefly as well as renilla luciferase measured in each well. The efficacy of a substance to repress RORγ activity was calculated from the ratio of firefly over renilla luciferase activity and normalization to the control wells and the DMSO treated wells. […]

**Q.** C[C@H](C[C@@H](O)C(=O)NCCS(=O)(=O)O)C1C[C@H](O)[C@H]2C3C(CC[C@]12C)[C@@]1(C)CC[C@@H](O)C[C@H]1C[C@H]3O (stereo in doubt) [Compound 14a, 3α,7β,15α,(23R)-tetrahydroxy-5β-24-oxocholanyl-amino ethansulfonic acid] was tested. Which “transcriptional activity of RORγ, as % of the intensity measured in the presence of DMSO” value (“transcriptional activity of RORγ, as % … of DMSO” for short) did it give?
**A.** 56%

**Q.** Which “transcriptional activity of RORγ, as % … of DMSO” value does the source give for C[C@H](C[C@@H](O)C(=O)O)C1C[C@H](O)[C@H]2C3C(CC[C@]12C)[C@@]1(C)CC[C@@H](O)C[C@H]1C[C@H]3O (stereo partly drawn) [Compound 13a, 3α,7α,15α,(23R)-tetrahydroxy-5β-cholanoic acid] here?
**A.** 52%

**Q.** With C[C@H](C[C@H](O)C(=O)O)C1C[C@H](O)[C@H]2C3C(CC[C@]12C)[C@@]1(C)CC[C@@H](O)C[C@H]1C[C@H]3O (stereo partly drawn) [Compound 13b, 3α,7α, 15α,(23S)-tetrahydroxy-5β-cholanoic acid] as the compound, how does the “transcriptional activity of RORγ, as % … of DMSO” value read?
**A.** 57%

From patent publication US20160287609A1, “ROR GAMMA MODULATORS” (ETH ZÜRICH, priority 2013, published 2016)
